Test results: ChEMBL document CHEMBL1140032, “Furoxan-, alkylnitrate-derivatives and related compounds as anti-trypanosomatid agents: mechanism of action studies” (2008)

What was measured:
[1] = system: Trypanosoma cruzi; assay: Antitrypanosomal activity against Trypanosoma cruzi Tulahuen 2 assessed as inhibition of growth of epimastigotes at 25 uM after 5 days by MTT assay relative to control; assay type: functional; conditions: Tulahuen 2, 120 h, read-out: GI
[2] = system: Trypanosoma cruzi; assay: Antitrypanosomal activity against Trypanosoma cruzi Tulahuen 2 assessed as inhibition of epimastigotes growth after 5 days by MTT assay relative to control; assay type: functional; conditions: Tulahuen 2, 120 h, read-out: ID50 (the source's name)

| IC50 [2] [µM] | Compound | inhibition of growth at 25 µM [1] [%] |
| --- | --- | --- |
|  | CN(C)Cc1nonc1C(N)=O | 0 |
|  | Cc1c(C(=O)NNC(N)=S)no[n+]1[O-] | 9 |
|  | O=C(O)CSc1no[n+]([O-])c1-c1ccccc1 | 4 |
| 25 | Nc1no[n+]([O-])c1-c1ccccc1 |  |
|  | CS(=O)(=O)CCOc1nonc1-c1ccccc1 | 4 |
|  | [O-][n+]1onc(CO)c1/C=N/O | 2 |
|  | NC(=O)c1nonc1CN1CCCCC1 | 3 |
|  | NC(=O)c1c(CN2CCC(Cc3c[nH]cn3)CC2)no[n+]1[O-] | 6 |
| 19 | Cc1ncc([N+](=O)[O-])n1CCOc1nonc1S(=O)(=O)c1ccccc1 |  |
|  | N#Cc1no[n+]([O-])c1-c1ccccc1 | 15 |
|  | O=C(O)COc1no[n+]([O-])c1S(=O)(=O)c1ccccc1 | 35 |
| 25 | CCCCCCNC(=O)N/N=C/c1c(-c2ccccc2)no[n+]1[O-] |  |
|  | Cc1c(CN(C)C)no[n+]1[O-] | 0 |
|  | Cc1c(CNC(c2c[nH]cn2)C2CCNCC2)no[n+]1[O-] (centres undefined) | 0 |
| 5 | Cc1ncc([N+](=O)[O-])n1CCOc1nonc1-c1ccccc1 |  |
| 5 | [O-][n+]1onc(-c2ccccc2)c1Br |  |
|  | NC(=O)c1nonc1CN1CCC(Cc2c[nH]cn2)CC1 | 0 |
|  | CS(=O)(=O)CCOc1no[n+]([O-])c1-c1ccccc1 | 11 |
|  | N#Cc1c(CN2CCC(Cc3c[nH]cn3)CC2)no[n+]1[O-] | 9 |
| 7.5 | CN(C)C(=O)CS(=O)(=O)c1c(-c2ccccc2)no[n+]1[O-] |  |
|  | Nc1c(-c2ccccc2)no[n+]1[O-] | 39 |
|  | Cc1no[n+]([O-])c1/C=N/O | 17 |
|  | O=C(O)CSc1nonc1-c1ccccc1 | 31 |

| IC50 [2] [µM] | Compound | inhibition of growth at 25 µM [1] [%] |
| --- | --- | --- |
|  | N#Cc1nonc1-c1ccccc1 | 2 |
|  | CCOc1nonc1-c1ccccc1 | 35 |
|  | Cc1ncc([N+](=O)[O-])n1CCNCc1no[n+]([O-])c1C#N | 5 |
| 4 | Cc1ncc([N+](=O)[O-])n1CCOc1no[n+]([O-])c1-c1ccccc1 |  |
|  | Nc1nonc1-c1ccccc1 | 45 |
|  | Cc1nonc1-c1nc2ccccc2s1 | 22 |
|  | CN(C)Cc1nonc1C#N | 13 |
| 18 | CCOc1c(-c2ccccc2)no[n+]1[O-] |  |
|  | Cc1c(-c2nc(S)n[nH]2)no[n+]1[O-] | 29 |
|  | O=S(=O)(CCO)c1nonc1-c1ccccc1 | 17 |
| 7.5 | O=S(=O)(c1ccccc1)c1c(OCCCO)no[n+]1[O-] |  |
|  | [O-][n+]1onc(-c2ccccc2)c1SC1CCNCC1 | 35 |
|  | Cc1nonc1CN1CCC(Cc2c[nH]cn2)CC1 | 21 |
| 7.5 | CCOc1no[n+]([O-])c1-c1ccccc1 |  |
|  | Cc1ncc([N+](=O)[O-])n1CCNCc1no[n+]([O-])c1C | 17 |
|  | Cc1ncc([N+](=O)[O-])n1CCNCc1no[n+]([O-])c1C(N)=O | 10 |
|  | Cc1nonc1CNCCn1c([N+](=O)[O-])cnc1C | 18 |
|  | CN(C)Cc1no[n+]([O-])c1C#N | 5 |
|  | O=S(=O)(c1ccccc1)c1nonc1-c1c[nH]cn1 | 12 |
|  | NC(=O)c1no[n+]([O-])c1-c1ccccc1 | 10 |
|  | c1ccc(-c2nonc2SC2CCNCC2)cc1 | 34 |
|  | Cc1nonc1-c1nc(S)n[nH]1 | 32 |
|  | CN(C)CCCOc1nonc1-c1ccccc1 | 0 |

| IC50 [2] [µM] | Compound | inhibition of growth at 25 µM [1] [%] |
| --- | --- | --- |
|  | Cc1nonc1C(=O)NNC(N)=S | 16 |
|  | Cc1ncc([N+](=O)[O-])n1CCOCC[N+](=O)[O-] | 13 |
|  | O=Cc1ccc(CC(CO[N+](=O)[O-])O[N+](=O)[O-])cc1 (centres undefined) | 0 |
|  | NC(=O)c1nonc1CO | 0 |
|  | Cc1no[n+]([O-])c1-c1nc(S)n[nH]1 | 40 |
| 2 | O=S(=O)(c1ccccc1)c1nonc1S(=O)(=O)c1ccccc1 |  |
|  | CCOCC.NC(=O)c1nonc1CNC(c1c[nH]cn1)C1CCNCC1 (centres undefined) | 0 |
| 5 | Cc1ncc([N+](=O)[O-])n1CCOc1no[n+]([O-])c1S(=O)(=O)c1ccccc1 |  |
| 7.5 | O=S(=O)(CCO)c1c(-c2ccccc2)no[n+]1[O-] |  |
|  | CCNCCCO[N+](=O)[O-] | 0 |
|  | O=C(O)c1ccc(OCC(CO[N+](=O)[O-])O[N+](=O)[O-])cc1 (centres undefined) | 0 |
|  | NC(=O)c1c(CN2CCCCC2)no[n+]1[O-] | 4 |
|  | Cc1ncc([N+](=O)[O-])n1CCNCc1nonc1C#N | 23 |
|  | N#Cc1c(CNC(c2c[nH]cn2)C2CCNCC2)no[n+]1[O-] (centres undefined) | 7 |
|  | [O-][n+]1onc(SC2CCNCC2)c1-c1ccccc1 | 32 |
|  | [O-][n+]1onc(/C=N/O)c1CO | 3 |
|  | Nc1no[n+]([O-])c1C(=O)N1CCCCC1 | 17 |
|  | O=C(O)c1ccc(CC(CO[N+](=O)[O-])O[N+](=O)[O-])cc1 (centres undefined) | 0 |
|  | Cc1c(-c2ccc(C(=O)O)cc2)no[n+]1[O-] | 34 |
|  | NC(=O)c1c(CO)no[n+]1[O-] | 0 |
|  | Cc1nonc1-c1nc2ccccc2o1 | 15 |
|  | Cc1nonc1CNC(c1c[nH]cn1)C1CCNCC1 (centres undefined) | 2 |
|  | CCOc1nonc1S(=O)(=O)c1ccccc1 | 25 |

| IC50 [2] [µM] | Compound | inhibition of growth at 25 µM [1] [%] |
| --- | --- | --- |
|  | N#Cc1nonc1CN1CCC(Cc2c[nH]cn2)CC1 | 0 |
|  | NC(=O)c1c(CNC(c2c[nH]cn2)C2CCNCC2)no[n+]1[O-] (centres undefined) | 17 |
|  | COC(=O)CSc1no[n+]([O-])c1-c1ccccc1 | 15 |
|  | Cc1nonc1-c1nc2ccccc2[nH]1 | 20 |
|  | CN(C)Cc1no[n+]([O-])c1C(N)=O | 11 |
|  | NC(=O)c1c(-c2ccccc2)no[n+]1[O-] | 35 |
|  | COc1cc(CN2CCN(c3ccc(CC(CO[N+](=O)[O-])O[N+](=O)[O-])cc3)CC2)cc(OC)c1OC (centres undefined) | 3 |
|  | CN(C)CCCOc1no[n+]([O-])c1-c1ccccc1 | 0 |
|  | CN(C)CCCOc1nonc1-c1c[nH]cn1 | 3 |
|  | Cc1c(CN2CCC(Cc3c[nH]cn3)CC2)no[n+]1[O-] | 4 |
|  | O=C(O)CSc1c(S(=O)(=O)c2ccccc2)no[n+]1[O-] | 0 |
|  | Cc1no[n+]([O-])c1-c1ccc(C(=O)O)cc1 | 38 |
|  | Cc1nonc1-c1ccc(C(=O)O)cc1 | 32 |
|  | Cc1nonc1CN(C)C | 0 |
|  | Cc1no[n+]([O-])c1C(=O)NNC(N)=S | 10 |
|  | Cc1ncc([N+](=O)[O-])n1CCNCc1nonc1C(N)=O | 14 |
|  | COC(=O)CSc1c(S(=O)(=O)c2ccccc2)no[n+]1[O-] | 22 |
|  | Cc1c(/C=N/O)no[n+]1[O-] | 32 |
|  | O=Cc1ccc(OCC(CO[N+](=O)[O-])O[N+](=O)[O-])cc1 (centres undefined) | 1 |
|  | CN(C)CCCOc1nonc1S(=O)(=O)c1ccccc1 | 15 |
